Data set [1] relates to C57B6 mice. The note with it: mouse, in vivo, ip.
For data set [2], the system named is B16F10 melanoma in C57B6 mice. In kind it is in vivo, mouse. Here is the method: C57B6 mice were inoculated s.c., left shoulder region, with […] B16F10 melanoma cells from culture. […] At 18 days post-tumor implantation (10 days post bacterial inoculation) all animals were given enrofloxacin antibiotic, 0.2 mg/ml, in their drinking water (BAYTRIL™) and maintained with this antibiotic supplement for 2 weeks. Tumor growth was assessed by caliper measurements and computed as volume in mm^3. Animals were euthanized and listed as dead when the sum of their tumor measurements, length+width+height, reached 60 mm, or when they became moribund (listless, cessation of drinking).
C57B6 female mice, 5-7 weeks old, were inoculated s.c. in the left shoulder region with 5×10^5 B16F10 melanoma cells grown in culture. […] Tumor growth was assessed with periodic caliper measurements of tumor length, width and height, and computed as tumor volume in mm^3. Results of tumor growth, shown in FIGS. 16A-D represent the averages±SD for 5 animals/group with 5/5 animals surviving. After the point at which one or more animals died within a group, the average tumor sizes of the surviving animals were no longer shown when the data were plotted as shown in FIGS. 16A-D.
The animals were allowed to eat and drink ad libitum. Twenty-three days (Experiment #1) or 10 days (Experiment #2) following inoculation of bacteria, both control and bacteria treated mice were given Baytril™ (enrofloxacin, 0.2 mg/ml drinking water) and maintained on this antibiotic for a total of 2 weeks. In Experiment #1 the times at which the mice became moribund (listless, cessation of drinking) or died, were noted. The results are presented in Table 20(F) as the average survival±SD for the conditions tested. In Experiment #2 animals were sacrificed when the tumor reached 4 g and listed with the other dead as described in Experiment #1. The two different methods for assessing survival accounted for a somewhat shorter survival time for control animals in Experiment #2 (26 days) as compared to Experiment #1 (28 days).

The test system of data set [3] is B16F10 melanoma cells. The format is cell-based, mouse. The protocol: FIG. 11-F is a graph showing the growth of B16F10 melanoma cells in monolayer culture in the presence or absence of ganciclovir at 10 μg/ml or 25 μg/ml.
The subject of data set [4] is Cloudman S91 melanoma/macrophage hybrid #48 tumors in DBA/2J mice.

Where two headings read alike, the source gives them in different places. Bounds are passed on as bounds.

For the compound `CCN1CCN(c2cc3c(cc2F)c(=O)c(C(=O)O)cn3C2CC2)CC1` [enrofloxacin, 1-cyclopropyl-7-(4-ethyl-1-piperazinyl)-6-fluoro-1,4-dihydro-4-oxo-3-quinolinecarboxylic acid], the “Avg. time of Death ± S.D.” value in data set [1] is on record as more than 21 days.

With `Nc1nc(O)c2ncn(COC(CO)CO)c2n1` [ganciclovir, ganciclovir sodium], in data set [2] (GCV 3.75 mg, no bacteria), the “Time Days ± S.D.” value amounted to 27 ± 1 days. In addition, the “Treated/Control T/C” value in data set [2] (GCV 3.75 mg, no bacteria) turned out to be 1.1. Also, in data set [2] (GCV 3.75 mg-10 mg/mouse days 11-12, no bacteria), the “effect on tumor volume” value was “small reduction in tumor volume”. Further, the “proliferation of B16F10 melanoma cells in culture” value in data set [3] (GCV 10 μg/ml) was “not”; in data set [3] (GCV 25 μg/ml), “significantly suppressed”. In addition, the “side-effects of ganciclovir treatment” value in data set [4] (2.5 mg i.p. four times over 3 days, no bacteria) is recorded as “little or no side-effects”. For the same compound, the “Mean Tumor Doubling Time” value in data set [4] (3×10^5 c.f.u. bacteria i.p., ganciclovir 2.0 mg, 6 inoculations over 5 days) came to 94 h.
